Where “and” joins values, the source holds several entries; their conditions need not be identical. Equal entries are not always repeated. Where two headings read alike, the source gives them in different places.
Experiments:
PSN1 = assay: SRB colorimetric assay of cell growth and viability, PSN1; assay type: cell-based; conditions: for LC50 / GI50: Homo sapiens; for LC50: PSN1, 72 h, read-out: LC50 PSN1; for GI50: PSN1, NCI algorithm; for GI50 / TGI PSN1: 72 hours treatment, SRB; for TGI PSN1: total cell growth inhibition
Description: (§1) Using the mean±SD of triplicate cultures, a dose-response curve was automatically generated using nonlinear regression analysis.

MDA-MB-231 [1] = assay: SRB colorimetric assay of cell growth and viability, MDA-MB-231; assay type: cell-based; conditions: for LC50 / GI50: Homo sapiens; for LC50: MDA-MB-231, 72 h, read-out: LC50 MDA-MB-231; for GI50: MDA-MB-231, NCI algorithm; for GI50 / TGI MDA-MB-231: 72 hours treatment, SRB; for TGI MDA-MB-231: total cell growth inhibition
Description: as §1

A549 = assay: SRB colorimetric assay of cell growth and viability, A549; assay type: cell-based; conditions: for CC50 / GI50: Homo sapiens; for CC50: A549, 72 h, read-out: LC50 A549; for GI50: A549, NCI algorithm; for GI50 / TGI A549: 72 hours treatment, SRB; for TGI A549: total cell growth inhibition
Description: as §1

HT29 = assay: SRB colorimetric assay of cell growth and viability, HT29; assay type: cell-based; conditions: for CC50 / GI50: Homo sapiens; for CC50: HT-29, 72 h, read-out: LC50 HT29; for GI50: HT-29, NCI algorithm; for GI50 / TGI HT29: 72 hours treatment, SRB; for TGI HT29: total cell growth inhibition
Description: as §1

P388 lymphoma = conditions: very low concentrations; cited from earlier work
B16 melanoma = conditions: very low concentrations; cited from earlier work
Lewis lung carcinoma = conditions: very low concentrations; cited from earlier work
MCF-7 = assay: SRB cytotoxicity assay, MCF-7 (HER2-); assay type: cell-based; conditions: Homo sapiens, MCF7, 72 h, read-out: IC50 MCF-7
Experimental: (§2) For SK-BR-3, HCC-1954, MDA-MB-231 and MCF-7 cells, a colorimetric assay using Sulforhodamine B (SRB) was adapted for quantitative measurement of cell growth and cytotoxicity, as described in V. Vichai and K. Kirtikara. Sulforhodamine B colorimetric assay for cytotoxicity screening. Nature Protocols, 2006, 1, 1112-1116. Briefly, cells were seeded in 96-well microtiter plates and allowed to stand for 24 hours in drug-free medium before treatment with vehicle alone or with the tested substances for 72 hours.
(§3) Cell survival was expressed as percentage of control, untreated cell survival.

[2] = test system: SK-BR-3, HCC-1954, MDA-MB-231 and MCF-7 cells; assay: cells; assay type: cell-based; conditions: Homo sapiens, 72 h
Experimental: as §2, §3

SK-BR-3 = assay: SRB cytotoxicity assay, SK-BR-3 (HER2+); assay type: cell-based; conditions: Homo sapiens, SK-BR-3, 72 h, read-out: IC50 SK-BR-3
Experimental: as §2, §3

HCC-1954 = assay: SRB cytotoxicity assay, HCC-1954 (HER2+); assay type: cell-based; conditions: Homo sapiens, HCC1954, 72 h, read-out: IC50 HCC-1954
Experimental: as §2, §3

MDA-MB-231 [3] = assay: SRB cytotoxicity assay, MDA-MB-231 (HER2-); assay type: cell-based; conditions: Homo sapiens, MDA-MB-231, 72 h, read-out: IC50 MDA-MB-231
Experimental: as §2, §3

[4] = read-out: geometric mean IC50 value across the whole cell panel

SMILES	LC50 (PSN1)	GI50 (PSN1)	TGI PSN1 (PSN1)	LC50 (MDA-MB-231 [1])	GI50 (MDA-MB-231 [1])	TGI MDA-MB-231 (MDA-MB-231 [1])	CC50 (A549)	GI50 (A549)	TGI A549 (A549)	CC50 (HT29)	GI50 (HT29)	TGI HT29 (HT29)	further results
COc1c(C)cc2c(c1O)[C@H]1N[C@@H](C2)[C@H](O)N2[C@H]1[C@@H]1SC[C@]3(NCCc4c3[nH]c3ccccc43)C(=O)OC[C@H]2c2c3c(c(C)c(OC(C)=O)c21)OCO3 [ET-722, Ecteinascidin 722]	3.1 nM	1.48 nM	2.16E−09 Molar	2.56 nM	0.891 nM	1.48E−09 Molar	> 135 nM	1.35 nM	1.35E−09 Molar	> 135 nM	1.35 nM	1.48E−09 Molar	protection of mice in vivo against P388 lymphoma (P388 lymphoma): protects mice in vivo at very low concentrations; protection of mice in vivo against B16 melanoma (B16 melanoma): protects mice in vivo at very low concentrations; protection of mice in vivo against Lewis lung carcinoma (Lewis lung carcinoma): protects mice in vivo at very low concentrations
COc1ccc2[nH]c3c(c2c1)CCN[C@]31CS[C@@H]2c3c(OC(C)=O)c(C)c4c(c3[C@H](COC1=O)N1[C@@H]2[C@@H]2N[C@@H](Cc3cc(C)c(OC)c(O)c32)[C@@H]1O)OCO4 [Compound 1]	2.34 nM	1.22 nM	1.69E−09 Molar	2.46 nM	0.752 nM	1.30E−09 Molar	7.78 nM	1.82 nM	3.37E−09 Molar	> 130 nM	1.28 nM	1.43E−09 Molar	IC50 (MCF-7): 0.0012 µg/mL and 1.56 nM; IC50 ([2]; read-out: IC50 values in all the tumor cell lines (range)): 0.882 to 1.95 nM; IC50 [2, 4]: 1.32 nM; IC50 (SK-BR-3): 0.00086 µg/mL and 1.12 nM; IC50 (HCC-1954): 0.0015 µg/mL and 1.95 nM; IC50 (MDA-MB-231 [3]): 0.00068 µg/mL and 0.882 nM
COc1ccc2[nH]c3c(c2c1)C[C@H](CO)N[C@]31CS[C@@H]2c3c(OC(C)=O)c(C)c4c(c3[C@H](COC1=O)N1[C@@H]2[C@@H]2N[C@@H](Cc3cc(C)c(OC)c(O)c32)[C@@H]1O)OCO4 [Compound 11-R]	15 nM	2.12 nM	3.62E−09 Molar	7.24 nM	1.62 nM	2.87E−09 Molar	> 125 nM	15 nM	4.50E−08 Molar	> 125 nM	2 nM	3.62E−09 Molar	–
COc1ccc2[nH]c3c(c2c1)CCN[C@]31CS[C@@H]2c3c(OC(C)=O)c(C)c4c(c3[C@H](COC1=O)N1[C@@H]2[C@@H]2N[C@@H](Cc3cc(C)c(OC)c(O)c32)[C@@H]1C#N)OCO4 [Compound 2]	5 nM	2.05 nM	3.08E−09 Molar	5.77 nM	5 nM	5.26E−09 Molar	> 1280 nM	12.8 nM	1.28E−08 Molar	≥ 1280 nM	5.13 nM	5.64E−09 Molar	IC50 (MCF-7): 0.0017 µg/mL and 2.18 nM; IC50 [2, 4]: 1.53 nM; IC50 (SK-BR-3): 0.00096 µg/mL and 1.23 nM; IC50 (HCC-1954): 0.0018 µg/mL and 2.31 nM; IC50 (MDA-MB-231 [3]): 0.00069 µg/mL and 0.885 nM
COc1c(C)cc2c(c1O)[C@H]1N[C@@H](C2)[C@H](O)N2[C@H]1[C@@H]1SC[C@]3(NCCc4c3oc3ccccc43)C(=O)OC[C@H]2c2c3c(c(C)c(OC(C)=O)c21)OCO3 [Compound 15]	45.8 nM	9.98 nM	1.48E−08 Molar	24.3 nM	7.14 nM	1.16E−08 Molar	> 135 nM	12.1 nM	2.56E−08 Molar	> 135 nM	8.76 nM	9.57E−09 Molar	–
COc1ccc2[nH]c3c(c2c1)C[C@H](CO)N[C@]31CS[C@@H]2c3c(OC(C)=O)c(C)c4c(c3[C@H](COC1=O)N1[C@@H]2[C@@H]2N[C@@H](Cc3cc(C)c(OC)c(O)c32)[C@@H]1C#N)OCO4 [Compound 10-R]	> 123 nM	0.753 nM	1.48E−09 Molar	3.09 nM	0.679 nM	1.21E−09 Molar	> 123 nM	4.32 nM	1.20E−08 Molar	> 123 nM	0.864 nM	1.61E−09 Molar	–
COc1c(C)cc2c(c1O)[C@H]1N[C@@H](C2)[C@H](C#N)N2[C@H]1[C@@H]1SC[C@]3(NCCc4c3oc3ccccc43)C(=O)OC[C@H]2c2c3c(c(C)c(OC(C)=O)c21)OCO3 [Compound 14]	22.6 nM	9.72 nM	1.33E−08 Molar	29.3 nM	6.66 nM	1.13E−08 Molar	> 133 nM	8.79 nM	1.73E−08 Molar	> 133 nM	8.52 nM	9.19E−09 Molar	–

Reference: patent US20240131180A1, “DRUG ANTIBODY CONJUGATES” (PHARMA MAR, S.A., priority 2020, published 2024)
